Assay results as given in PubChem BioAssay (NCI).
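48-hour exposure; five concentrations; linearly interpolated endpoints. GI50 is the concentration that inhibits growth by half. TGI denotes the concentration required for complete inhibition of growth.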

Key:
Experiment in all cases: NCI-60 cell line screen, 48 h
HOP-62 NSCLC = system: HOP-62 NSCLC
SF-539 CNS = system: SF-539 CNS
DLD-1 colon = system: DLD-1 colon
A498 renal = system: A498 renal
HCT-116 colon = system: HCT-116 colon
K-562 leukemia = system: K-562 leukemia
HOP-18 NSCLC = system: HOP-18 NSCLC
MALME-3M melanoma = system: MALME-3M melanoma
RXF 393 renal = system: RXF 393 renal
DMS 273 small cell lung = system: DMS 273 small cell lung
NCI-H226 lung = system: NCI-H226 lung
SF-268 CNS = system: SF-268 CNS
IGROV1 ovarian = system: IGROV1 ovarian
CCRF-CEM leukemia = system: CCRF-CEM leukemia
OVCAR-4 ovarian = system: OVCAR-4 ovarian
SNB-75 CNS = system: SNB-75 CNS
OVCAR-8 ovarian = system: OVCAR-8 ovarian
UACC-257 melanoma = system: UACC-257 melanoma
CAKI-1 renal = system: CAKI-1 renal
MOLT-4 leukemia = system: MOLT-4 leukemia
KM12 colon = system: KM12 colon
SK-OV-3 ovarian = system: SK-OV-3 ovarian
UO-31 renal = system: UO-31 renal
HT29 colon = system: HT29 colon
LXFL 529 NSCLC = system: LXFL 529 NSCLC
XF 498 CNS = system: XF 498 CNS
SW-620 colon = system: SW-620 colon
A549 NSCLC = system: A549 NSCLC
NCI-H460 lung = system: NCI-H460 lung
U251 CNS = system: U251 CNS
NCI-H522 lung = system: NCI-H522 lung
OVCAR-3 ovarian = system: OVCAR-3 ovarian
786-0 renal = system: 786-0 renal
SK-MEL-28 melanoma = system: SK-MEL-28 melanoma
ACHN renal = system: ACHN renal
SNB-19 CNS = system: SNB-19 CNS
SF-295 CNS = system: SF-295 CNS
SN12C renal = system: SN12C renal
SK-MEL-2 melanoma = system: SK-MEL-2 melanoma
TK-10 renal = system: TK-10 renal
HCT-15 colon = system: HCT-15 colon
LOX IMVI melanoma = system: LOX IMVI melanoma
M14 melanoma = system: M14 melanoma
HOP-92 NSCLC = system: HOP-92 NSCLC
RPMI-8226 leukemia = system: RPMI-8226 leukemia
NCI-H23 lung = system: NCI-H23 lung
UACC-62 melanoma = system: UACC-62 melanoma
M19-MEL melanoma = system: M19-MEL melanoma
SNB-78 CNS = system: SNB-78 CNS
DMS 114 small cell lung = system: DMS 114 small cell lung
SK-MEL-5 melanoma = system: SK-MEL-5 melanoma
OVCAR-5 ovarian = system: OVCAR-5 ovarian
COLO 205 colon = system: COLO 205 colon
SR leukemia = system: SR leukemia
HCC-2998 colon = system: HCC-2998 colon
KM20L2 colon = system: KM20L2 colon
EKVX NSCLC = system: EKVX NSCLC

For `COc1cc2c(cc1OC)[Se]c1cc(OC)c(OC)cc1[Se]2`, the GI50 (HOP-62 NSCLC) was over 100 µM, the TGI (HOP-62 NSCLC) was over 100 µM and the TGI (SF-539 CNS) was over 100 µM. For the same compound, the GI50 (DLD-1 colon) was over 100 µM, the TGI (DLD-1 colon) was over 100 µM and the GI50 (A498 renal) was over 100 µM. It also gave a TGI (A498 renal) of over 100 µM, a GI50 (HCT-116 colon) of over 100 µM and a TGI (HCT-116 colon) of over 100 µM. For the same compound, the GI50 (K-562 leukemia) was 5.08 µM, the TGI (K-562 leukemia) was over 100 µM and the TGI (HOP-18 NSCLC) was over 100 µM. The GI50 (MALME-3M melanoma) was over 100 µM, the TGI (MALME-3M melanoma) was over 100 µM and the TGI (RXF 393 renal) was over 100 µM. For the same compound, the TGI (DMS 273 small cell lung) was over 100 µM, the GI50 (NCI-H226 lung) was over 100 µM and the TGI (NCI-H226 lung) was over 100 µM. The GI50 (SF-268 CNS) was over 100 µM, the TGI (SF-268 CNS) was over 100 µM and the GI50 (IGROV1 ovarian) was over 100 µM. The TGI (IGROV1 ovarian) was over 100 µM, the GI50 (CCRF-CEM leukemia) was over 100 µM and the TGI (CCRF-CEM leukemia) was over 100 µM. It also gave a GI50 (OVCAR-4 ovarian) of over 100 µM, a TGI (OVCAR-4 ovarian) of over 100 µM and a TGI (SNB-75 CNS) of over 100 µM. It also gave a GI50 (OVCAR-8 ovarian) of over 100 µM, a TGI (OVCAR-8 ovarian) of over 100 µM and a GI50 (UACC-257 melanoma) of over 100 µM. It also gave a TGI (UACC-257 melanoma) of over 100 µM, a GI50 (CAKI-1 renal) of over 100 µM and a TGI (CAKI-1 renal) of over 100 µM. The TGI (MOLT-4 leukemia) was over 100 µM, the GI50 (KM12 colon) was 3.54 µM and the TGI (KM12 colon) was over 100 µM. It also gave a GI50 (SK-OV-3 ovarian) of over 100 µM, a TGI (SK-OV-3 ovarian) of over 100 µM and a GI50 (UO-31 renal) of over 100 µM. For the same compound, the TGI (UO-31 renal) was over 100 µM, the GI50 (HT29 colon) was 4.32 µM and the TGI (HT29 colon) was over 100 µM. It also gave a GI50 (LXFL 529 NSCLC) of over 100 µM, a TGI (LXFL 529 NSCLC) of over 100 µM and a GI50 (XF 498 CNS) of over 100 µM. The TGI (XF 498 CNS) was over 100 µM, the GI50 (SW-620 colon) was over 100 µM and the TGI (SW-620 colon) was over 100 µM. For the same compound, the GI50 (A549 NSCLC) was over 100 µM, the TGI (A549 NSCLC) was over 100 µM and the GI50 (NCI-H460 lung) was over 100 µM. The TGI (NCI-H460 lung) was over 100 µM, the GI50 (U251 CNS) was over 100 µM and the TGI (U251 CNS) was over 100 µM. For the same compound, the GI50 (NCI-H522 lung) was over 100 µM, the TGI (NCI-H522 lung) was over 100 µM and the GI50 (OVCAR-3 ovarian) was over 100 µM. For the same compound, the TGI (OVCAR-3 ovarian) was over 100 µM, the GI50 (786-0 renal) was over 100 µM and the TGI (786-0 renal) was over 100 µM. It also gave a GI50 (SK-MEL-28 melanoma) of over 100 µM, a TGI (SK-MEL-28 melanoma) of over 100 µM and a GI50 (ACHN renal) of over 100 µM. It also gave a TGI (ACHN renal) of over 100 µM, a GI50 (SNB-19 CNS) of over 100 µM and a TGI (SNB-19 CNS) of over 100 µM. For the same compound, the TGI (SF-295 CNS) was over 100 µM, the GI50 (SN12C renal) was over 100 µM and the TGI (SN12C renal) was over 100 µM. The GI50 (SK-MEL-2 melanoma) was over 100 µM, the TGI (SK-MEL-2 melanoma) was over 100 µM and the GI50 (TK-10 renal) was over 100 µM. The TGI (TK-10 renal) was over 100 µM, the TGI (HCT-15 colon) was over 100 µM and the TGI (LOX IMVI melanoma) was over 100 µM. For the same compound, the GI50 (M14 melanoma) was over 100 µM, the TGI (M14 melanoma) was over 100 µM and the TGI (HOP-92 NSCLC) was over 100 µM. For the same compound, the GI50 (RPMI-8226 leukemia) was over 100 µM, the TGI (RPMI-8226 leukemia) was over 100 µM and the GI50 (NCI-H23 lung) was over 100 µM. It also gave a TGI (NCI-H23 lung) of over 100 µM, a GI50 (UACC-62 melanoma) of over 100 µM and a TGI (UACC-62 melanoma) of over 100 µM. The GI50 (M19-MEL melanoma) was over 100 µM, the TGI (M19-MEL melanoma) was over 100 µM and the GI50 (SNB-78 CNS) was over 100 µM. It also gave a TGI (SNB-78 CNS) of over 100 µM, a GI50 (DMS 114 small cell lung) of 4.77 µM and a TGI (DMS 114 small cell lung) of over 100 µM. It also gave a GI50 (SK-MEL-5 melanoma) of over 100 µM and a TGI (SK-MEL-5 melanoma) of over 100 µM.

`O=C(c1ccccc1)c1nc2ccc(Cl)cc2c2c1Cc1ccccc1-2` showed a TGI (HOP-62 NSCLC) of over 100 µM, a TGI (SF-539 CNS) of over 100 µM and a TGI (DLD-1 colon) of over 100 µM. It also gave a TGI (HCT-116 colon) of over 100 µM, a TGI (K-562 leukemia) of over 100 µM and a TGI (OVCAR-5 ovarian) of over 100 µM. The TGI (HOP-18 NSCLC) was over 100 µM, the TGI (MALME-3M melanoma) was over 100 µM and the TGI (RXF 393 renal) was over 100 µM. The TGI (DMS 273 small cell lung) was over 100 µM, the TGI (NCI-H226 lung) was over 100 µM and the TGI (SF-268 CNS) was over 100 µM. The TGI (IGROV1 ovarian) was over 100 µM, the TGI (COLO 205 colon) was over 100 µM and the TGI (OVCAR-4 ovarian) was over 100 µM. It also gave a TGI (SNB-75 CNS) of over 100 µM, a TGI (SR leukemia) of over 100 µM and a TGI (OVCAR-8 ovarian) of over 100 µM. It also gave a TGI (UACC-257 melanoma) of over 100 µM, a TGI (CAKI-1 renal) of over 100 µM and a TGI (MOLT-4 leukemia) of over 100 µM. For the same compound, the TGI (KM12 colon) was over 100 µM, the TGI (UO-31 renal) was over 100 µM and the TGI (LXFL 529 NSCLC) was over 100 µM. For the same compound, the TGI (XF 498 CNS) was over 100 µM, the TGI (SW-620 colon) was over 100 µM and the TGI (A549 NSCLC) was over 100 µM. The TGI (HCC-2998 colon) was over 100 µM, the TGI (U251 CNS) was over 100 µM and the TGI (KM20L2 colon) was over 100 µM. It also gave a TGI (NCI-H522 lung) of over 100 µM, a TGI (OVCAR-3 ovarian) of over 100 µM and a TGI (786-0 renal) of over 100 µM. For the same compound, the TGI (SK-MEL-28 melanoma) was over 100 µM, the TGI (ACHN renal) was over 100 µM and the TGI (SNB-19 CNS) was over 100 µM. It also gave a TGI (SF-295 CNS) of over 100 µM, a TGI (SN12C renal) of over 100 µM and a TGI (SK-MEL-2 melanoma) of over 100 µM. It also gave a TGI (TK-10 renal) of over 100 µM, a TGI (HCT-15 colon) of over 100 µM and a TGI (LOX IMVI melanoma) of over 100 µM. It also gave a TGI (M14 melanoma) of over 100 µM, a TGI (EKVX NSCLC) of over 100 µM and a TGI (RPMI-8226 leukemia) of over 100 µM. The TGI (NCI-H23 lung) was over 100 µM, the TGI (UACC-62 melanoma) was over 100 µM and the TGI (M19-MEL melanoma) was over 100 µM. It also gave a TGI (DMS 114 small cell lung) of over 100 µM and a TGI (SK-MEL-5 melanoma) of over 100 µM.
